EC50 data for 1 compound are collected here from patent US12365670B2, “GLP-IR agonists and uses thereof” (QILU REGOR THERAPEUTICS INC., priority 2018, dated 2025).

For this assay, the target named is GLP1R (Homo sapiens, UniProt P43220). Put plainly: GLP1R cAMP HTRF assay, HEK293/GLP-1R/CRE/Luc (HEK293T cells). In kind it is cell-based. Particulars: concentration yielding 50% of the maximum cAMP level of the same compound. The procedure:
GLP-1R-mediated agonist activity was determined with a cell-based functional assay utilizing an HTRF (Homogeneous Time-Resolved Fluorescence) cAMP detection kit (cAMP Dynamic 2 Assay Kit; CisBio cat #62AM4PEC) that measures cAMP levels in the cell. The method is a competitive immunoassay between native cAMP produced by the cells and exogenous cAMP labeled with the dye d2. The tracer binding is visualized by a mAb anti-cAMP labeled with Cryptate. The specific signal (i.e., energy transfer) is inversely proportional to the concentration of cAMP in either standard or experimental sample.
A cell line stably expressing the receptor was isolated. […]
IBMX and BSA were freshly added on the day of assay]. A 10 μL sample of the cell suspension was counted on an Invitrogen Countess II to determine cell viability and cell count per mL. […]
Following the 30 minute incubation, 5 μL of labeled d2 cAMP and 5 μL of anti-cAMP antibody (both diluted 1:20 in cell lysis buffer; as described in the manufacturer's assay protocol) were added to each well of the assay plate. […] Raw data were converted to nM cAMP by interpolation from a cAMP standard curve (as described in the manufacturer's assay protocol) and the percent effect was determined relative to a saturating concentration of the full agonist GLP-17-37 (10 nM) included on each plate. […]

Chain of GLP1R (P43220 24-463): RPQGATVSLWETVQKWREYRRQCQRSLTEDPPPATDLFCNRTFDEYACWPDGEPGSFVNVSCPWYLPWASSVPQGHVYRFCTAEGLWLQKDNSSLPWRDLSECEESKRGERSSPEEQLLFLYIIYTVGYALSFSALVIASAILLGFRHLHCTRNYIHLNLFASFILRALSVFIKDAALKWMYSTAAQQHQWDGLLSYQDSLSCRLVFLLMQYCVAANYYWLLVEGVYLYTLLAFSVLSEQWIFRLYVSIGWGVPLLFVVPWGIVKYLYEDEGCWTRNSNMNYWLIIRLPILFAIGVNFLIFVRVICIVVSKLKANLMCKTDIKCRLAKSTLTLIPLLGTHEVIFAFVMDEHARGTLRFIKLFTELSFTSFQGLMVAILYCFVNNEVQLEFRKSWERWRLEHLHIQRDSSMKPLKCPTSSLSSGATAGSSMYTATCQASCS

Turning to `N#Cc1ccc(COc2cc(F)cc(C3=CCN(Cc4nc5ccc(C(=O)O)cc5n4C[C@@H]4CCO4)CC3)c2)c(F)c1` [Compound 218, (S)-2-((4-(3-((4-cyano-2-fluorobenzyl)oxy)-5-fluorophenyl)-5,6-dihydropyridin-1(2H)-yl)methyl)-1-(oxetan-2-ylmethyl)-1H-benzo[d]imidazole-6-carboxylic acid], the EC50 – broadly, the concentration giving half of the maximal effect – is not above 0.15 µM.
